The source of these data is patent US8859777B2, “4-fluoro-4-arylpiperdin-1-yl derivatives as mu opioid function moderators” (priority 2010, dated 2014).

The structures appear in SMILES notation. Structures can show the parent of a compound that is named as a salt. A value given as a limit tells only on which side of the number the result lay.

The target in one assay is T1, Mu opioid receptor (Homo sapiens, UniProt P35372).
T1 construct: expressed in transfected cells; host or cells: HEK-293
T1 sequence (P35372 whole entry): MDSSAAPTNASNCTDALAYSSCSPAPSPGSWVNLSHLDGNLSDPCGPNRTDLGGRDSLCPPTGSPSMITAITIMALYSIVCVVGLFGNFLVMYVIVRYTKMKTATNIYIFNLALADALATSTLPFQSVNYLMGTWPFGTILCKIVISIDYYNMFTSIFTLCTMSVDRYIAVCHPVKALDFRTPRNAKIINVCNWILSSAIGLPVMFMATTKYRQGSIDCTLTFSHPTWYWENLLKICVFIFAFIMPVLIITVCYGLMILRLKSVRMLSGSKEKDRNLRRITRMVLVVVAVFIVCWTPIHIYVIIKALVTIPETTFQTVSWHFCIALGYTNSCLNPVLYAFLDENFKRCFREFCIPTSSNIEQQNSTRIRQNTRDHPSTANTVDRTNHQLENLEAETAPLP
As to the kind of experiment: Affinity for the Mu opioid receptor, [3H]diprenorphine radioligand binding.
Conditions: not given
The protocol:
Compounds of the invention were assayed for affinity for the Mu opioid receptor using the methodology described in Zhang et al. (J. Pharmacol. Exp. Ther., (1998) 286: 136-141). Compounds were assessed in human recombinant (HEK-293) cells using tritium labeled diprenorphine (0.4 nM) as the specific determinant and non-specific binding was assayed with naltrexone (1 μM). Cells were incubated for 120 minutes at 22° C. before isolation and radioactivity determination by scintillation counting. The IC50 values (concentration causing a half-maximal inhibition of control specific binding) and Hill coefficients (nH) were determined by non-linear regression analysis of the competition curves generated with mean replicate values using Hill equation curve fitting (Y=D+[(A−D)/(1+(C/C50)^nH)], where Y=specific binding, D=minimum specific binding, A=maximum specific binding, C=compound concentration, C50=IC50, and nH=slope factor). The inhibition constants (Ki) were calculated using the Cheng-Prusoff equation (Ki=IC50/(1+(L/KD)), where L=concentration of radioligand in the assay, and KD=affinity of the radioligand for the receptor). Each data point was obtained in duplicate and results are the mean value.
`CC1CN(CC(Cc2ccccc2)(Cc2ccccc2)C(=O)O)CCC1(F)c1cccc(O)c1` (centres unmarked) [Example 15, 2,2-Dibenzyl 3-[4-(3-hydroxyphenyl)-4-fluoro-3-methylpiperidin-1-yl]propionic Acid Hydrochloride] displayed a Ki of less than 100 nM.
Still for that read-out and setting: for `Cc1ccc(S(=O)(=O)Nc2cccc(C3(F)CCN(CCOc4ccccc4)CC3)c2)cc1` [Example 17, N-{3-[4-Fluoro-1-(2-phenoxyethyl)piperidin-4-yl]phenyl}-4-methyl-benzenesulfonamide Hydrochloride] the value was 100 to 1000 nM; for `CC1CN(CCOc2ccccc2)CCC1(F)c1cccc(O)c1` (centres unmarked) [Example 13, 4-fluoro-4-(3-Hydroxyphenyl)-3-methyl-1-(2-phenoxyethyl)piperidine Hydrochloride], less than 100 nM; for `Oc1cccc(C2(F)CCN(CCCC3CCCCC3)CC2)c1` [Example 11, 1-(3-Cyclohexylpropyl)-4-fluoro-4-(3-hydroxyphenyl)piperidine Hydrochloride], less than 100 nM.

The assay is the same for the next values; noted with them: human recombinant (HEK-293) cells; tritium labeled diprenorphine 0.4 nM; non-specific binding with naltrexone 1 μM; 120 minutes at 22° C.; mean of duplicates; read-out: Affinity.
On to `CS(=O)(=O)Nc1cccc(C2(F)CCN(CCOc3ccccc3)CC2)c1` [Example 18, N-{3-[4-Fluoro-1-(2-phenoxyethyl)piperidin-4-yl]phenyl}methane-sulfonamide Hydrochloride], for which the Ki is 1000 to 10000 nM.
As for `CC(C)(C)NC(=O)Nc1cccc(C2(F)CCN(CCOc3ccccc3)CC2)c1` [Example 19, 1-tert-Butyl-3-{3-[4-fluoro-1-(2-phenoxyethyl)-piperidin-4-yl]phenyl}-urea], the Ki lay in the range of 1000 to 10000 nM.
Take `O=C(O)C(Cc1ccccc1)(Cc1ccccc1)CN1CCC(F)(c2ccc(Cl)cc2)CC1` [Example 5, 2,2-Dibenzyl-3-[4-(4-chlorophenyl)-4-fluoropiperidin-1-yl]propionic acid Hydrochloride]: the Ki fell in the range of 1000 to 10000 nM.
As for `FC1(c2ccc(Cl)cc2)CCN(CCC(c2ccccc2)c2ccccc2)CC1` [Example 1, 4-(4-Chlorophenyl)-1-(3,3-diphenylpropyl)-4-fluoropiperidine Hydrochloride], the Ki fell in the range of 1000 to 10000 nM.
